Source: patent US20230278972A1, “SUBSTITUTED HALOALKYL SULFONANILIDE HERBICIDES” (FMC Corporation, priority 2020, published 2023)

Experiments:
Type in all cases: in vivo
[1] = tested on: corn (Zea mays); test: Test A1 preemergence, corn
From the text: (§1) Seeds of plant species selected from, blackgrass (Alopecurus myosuroides), corn (Zea mays), Foxtail, Giant (giant foxtail, Setaria faberi), goosegrass (Eleusine indica), kochia (Bassia scoparia), Oat, Wild (wild oat, Avena fatua), Pigweed, Palmer (palmer amaranth, palmer pigweed, Amaranthus palmeri), ragweed (common ragweed, Ambrosia artemisiifolia), Ryegrass, Italian (Italian ryegrass, Lolium multiflorum), soybean (Glycine max), and wheat (Triticum aestivum) were planted into a blend of loam soil and sand and treated preemergence with a directed soil spray using test chemicals formulated in a non-phytotoxic solvent mixture which included a surfactant. At the same time, plants selected from these crop and weed species and also galium (catchweed bedstraw, Galium aparine) and horseweed (Erigeron canadensis) were planted in pots containing the same blend of loam soil and sand and treated with postemergence applications of test chemicals formulated in the same manner. Plants ranged in height from 2 to 10 cm and were in the one- to two-leaf stage for the postemergence treatment. […] A dash (-) response means no test result.

[2] = tested on: Foxtail, Giant (giant foxtail, Setaria faberi); test: Test A1 preemergence, Foxtail, Giant
From the text: as §1

[3] = tested on: goosegrass (Eleusine indica); test: Test A1 preemergence, goosegrass
From the text: as §1

[4] = tested on: kochia (Bassia scoparia); test: Test A1 preemergence, kochia
From the text: as §1

[5] = tested on: Oat, Wild (wild oat, Avena fatua); test: Test A1 preemergence, Oat, Wild
From the text: as §1

[6] = tested on: Pigweed, Palmer (palmer amaranth, palmer pigweed, Amaranthus palmeri); test: Test A1 preemergence, Pigweed, Palmer
From the text: as §1

[7] = tested on: ragweed (common ragweed, Ambrosia artemisiifolia); test: Test A1 preemergence, ragweed
From the text: as §1

[8] = tested on: Ryegrass, Italian (Italian ryegrass, Lolium multiflorum); test: Test A1 preemergence, Ryegrass, Italian
From the text: as §1

[9] = tested on: soybean (Glycine max); test: Test A1 preemergence, soybean
From the text: as §1

[10] = tested on: wheat (Triticum aestivum); test: Test A1 preemergence, wheat
From the text: as §1

[11] = tested on: blackgrass (Alopecurus myosuroides); test: Test A1 postemergence, blackgrass; conditions: 0 to 100 scale (0 no effect, 100 complete control); for Blackgrass plant response rating: 31 g ai/ha, postemergence; for Plant response rating, Blackgrass: Postemergence, 125 g ai/ha, 10 days
From the text: as §1

[12] = tested on: corn (Zea mays); test: Test A1 postemergence, corn; conditions: 0 to 100 scale (0 no effect, 100 complete control); for Corn plant response rating: 31 g ai/ha, postemergence; for Plant response rating, Corn: Postemergence, 125 g ai/ha, 10 days
From the text: as §1

[13] = tested on: Foxtail, Giant (giant foxtail, Setaria faberi); test: Test A1 postemergence, Foxtail, Giant; conditions: 0 to 100 scale (0 no effect, 100 complete control); for Foxtail, Giant plant response rating: 31 g ai/ha, postemergence; for Plant response rating, Foxtail, Giant: Postemergence, 125 g ai/ha, 10 days
From the text: as §1

[14] = tested on: goosegrass (Eleusine indica); test: Test A1 postemergence, goosegrass; conditions: 0 to 100 scale (0 no effect, 100 complete control); for Goosegrass plant response rating: 31 g ai/ha, postemergence; for Plant response rating, Goosegrass: Postemergence, 125 g ai/ha, 10 days
From the text: as §1

[15] = tested on: kochia (Bassia scoparia); test: Test A1 postemergence, kochia; conditions: 0 to 100 scale (0 no effect, 100 complete control); for Kochia plant response rating: 31 g ai/ha, postemergence; for Plant response rating, Kochia: Postemergence, 125 g ai/ha, 10 days
From the text: as §1

[16] = tested on: Oat, Wild (wild oat, Avena fatua); test: Test A1 postemergence, Oat, Wild; conditions: 0 to 100 scale (0 no effect, 100 complete control); for Oat, Wild plant response rating: 31 g ai/ha, postemergence; for Plant response rating, Oat, Wild: Postemergence, 125 g ai/ha, 10 days
From the text: as §1

[17] = tested on: Pigweed, Palmer (palmer amaranth, palmer pigweed, Amaranthus palmeri); test: Test A1 postemergence, Pigweed, Palmer; conditions: 0 to 100 scale (0 no effect, 100 complete control); for Pigweed, Palmer plant response rating: 31 g ai/ha, postemergence; for Plant response rating, Pigweed, Palmer: Postemergence, 125 g ai/ha, 10 days
From the text: as §1

[18] = tested on: ragweed (common ragweed, Ambrosia artemisiifolia); test: Test A1 postemergence, ragweed; conditions: 0 to 100 scale (0 no effect, 100 complete control); for Ragweed plant response rating: 31 g ai/ha, postemergence; for Plant response rating, Ragweed: Postemergence, 125 g ai/ha, 10 days
From the text: as §1

[19] = tested on: Ryegrass, Italian (Italian ryegrass, Lolium multiflorum); test: Test A1 postemergence, Ryegrass, Italian; conditions: 0 to 100 scale (0 no effect, 100 complete control); for Ryegrass, Italian plant response rating: 31 g ai/ha, postemergence; for Plant response rating, Ryegrass, Italian: Postemergence, 125 g ai/ha, 10 days
From the text: as §1

[20] = tested on: soybean (Glycine max); test: Test A1 postemergence, soybean; conditions: 0 to 100 scale (0 no effect, 100 complete control); for Soybean plant response rating: 31 g ai/ha, postemergence; for Plant response rating, Soybean: Postemergence, 125 g ai/ha, 10 days
From the text: as §1

[21] = tested on: wheat (Triticum aestivum); test: Test A1 postemergence, wheat; conditions: 0 to 100 scale (0 no effect, 100 complete control); for Wheat plant response rating: 31 g ai/ha, postemergence; for Plant response rating, Wheat: Postemergence, 125 g ai/ha, 10 days
From the text: as §1

[22] = tested on: galium (catchweed bedstraw, Galium aparine); test: Test A1 postemergence, galium; conditions: 0 to 100 scale (0 no effect, 100 complete control); for Galium plant response rating: 31 g ai/ha, postemergence; for Plant response rating, Galium: Postemergence, 125 g ai/ha, 10 days
From the text: as §1

[23] = tested on: horseweed (Erigeron canadensis); test: Test A1 postemergence, horseweed; conditions: 0 to 100 scale (0 no effect, 100 complete control); for Horseweed plant response rating: 31 g ai/ha, postemergence; for Plant response rating, Horseweed: Postemergence, 125 g ai/ha, 10 days
From the text: as §1

[24] = tested on: barnyardgrass (Echinochloa crus-galli); test: Test B1 flooded paddy test, barnyardgrass; conditions: 250 g ai/ha, Flood, applied to paddy water, 2-leaf stage, visually evaluated after 10 to 14 days
From the text: (§2) A dash (-) response means no test result.

[25] = tested on: ducksalad (Heteranthera limosa); test: Test B1 flooded paddy test, ducksalad; conditions: 250 g ai/ha, Flood, applied to paddy water, 2-leaf stage, visually evaluated after 10 to 14 days
From the text: as §2

[26] = tested on: rice (Oryza sativa); test: Test B1 flooded paddy test, rice; conditions: 250 g ai/ha, Flood, applied to paddy water, 2-leaf stage, visually evaluated after 10 to 14 days
From the text: as §2

[27] = 31 g ai/ha, 0 to 100 scale (0 no effect, 100 complete control)
[28] = 125 g ai/ha, 0 to 100 scale, 0 no effect, 100 complete control
[29] = 125 g ai/ha, 0 to 100 scale (0 no effect, 100 complete control)

`CCOc1cccc2c1C(=O)N(c1cc(N(COC(=O)C(C)(C)C)S(=O)(=O)Cl)c(C)cc1C)C2` [Compound 414] was tested, and the “Plant response rating, Corn” value [1, 27] was 0, the “Plant response rating, Corn” value [1, 28] was 10 and the “Plant response rating, Foxtail, Giant” value [2, 27] was 0. The “Plant response rating, Foxtail, Giant” value [2, 29] was 0, the “Plant response rating, Goosegrass” value [3, 27] was 0 and the “Plant response rating, Goosegrass” value [3, 29] was 0. The “Plant response rating, Kochia” value [4, 27] was 20, the “Plant response rating, Kochia” value [4, 29] was 80 and the “Plant response rating, Oat, Wild” value [5, 29] was 30. For the same molecule, the “Plant response rating, Pigweed, Palmer” value [6, 29] was 40, the “Plant response rating, Ragweed” value [7, 29] was 20 and the “Plant response rating, Ryegrass, Italian” value [8, 29] was 30. For the same molecule, the “Plant response rating, Soybean” value [9, 29] was 0, the “Plant response rating, Wheat” value [10, 29] was 0 and the “Blackgrass plant response rating” value [11] was 0. For the same molecule, the “Plant response rating, Blackgrass” value [11] was 30, the “Corn plant response rating” value [12] was 0 and the “Plant response rating, Corn” value [12] was 0. For the same molecule, the “Foxtail, Giant plant response rating” value [13] was 0, the “Plant response rating, Foxtail, Giant” value [13] was 0 and the “Goosegrass plant response rating” value [14] was 0. The “Plant response rating, Goosegrass” value [14] was 0, the “Kochia plant response rating” value [15] was 1 and the “Plant response rating, Kochia” value [15] was 50. The “Oat, Wild plant response rating” value [16] was 0, the “Plant response rating, Oat, Wild” value [16] was 0 and the “Pigweed, Palmer plant response rating” value [17] was 0. The “Plant response rating, Pigweed, Palmer” value [17] was 10, the “Ragweed plant response rating” value [18] was 40 and the “Plant response rating, Ragweed” value [18] was 70. For the same molecule, the “Ryegrass, Italian plant response rating” value [19] was 0, the “Plant response rating, Ryegrass, Italian” value [19] was 0 and the “Soybean plant response rating” value [20] was 20. For the same molecule, the “Plant response rating, Soybean” value [20] was 30, the “Wheat plant response rating” value [21] was 0 and the “Plant response rating, Wheat” value [21] was 0. The “Galium plant response rating” value [22] was 60, the “Plant response rating, Galium” value [22] was 70 and the “Horseweed plant response rating” value [23] was 0. The “Plant response rating, Horseweed” value [23] was 70, the “Plant response rating, Barnyardgrass (0 to 100 scale, 0 is no effect, 100 is complete control)” value [24] was 0 and the “Plant response rating, Ducksalad (0 to 100 scale, 0 is no effect, 100 is complete control)” value [25] was 40. For the same molecule, the “Plant response rating, Rice (0 to 100 scale, 0 is no effect, 100 is complete control)” value [26] was 0.

With `Cc1c(NS(=O)(=O)C(F)(F)F)cc(C2=NOC3(CCCC3)C2)c(C)c1C` [Compound 380] the “Plant response rating, Corn” value [1, 27] was 0, the “Plant response rating, Corn” value [1, 28] was 30 and the “Plant response rating, Foxtail, Giant” value [2, 27] was 80. For the same molecule, the “Plant response rating, Foxtail, Giant” value [2, 28] was 100, the “Plant response rating, Goosegrass” value [3, 27] was 50 and the “Plant response rating, Goosegrass” value [3, 28] was 100. The “Plant response rating, Kochia” value [4, 27] was 0, the “Plant response rating, Kochia” value [4, 28] was 60 and the “Plant response rating, Oat, Wild” value [5, 27] was 20. For the same molecule, the “Plant response rating, Oat, Wild” value [5, 28] was 90, the “Plant response rating, Pigweed, Palmer” value [6, 27] was 30 and the “Plant response rating, Pigweed, Palmer” value [6, 28] was 40. For the same molecule, the “Plant response rating, Ragweed” value [7, 27] was 0, the “Plant response rating, Ragweed” value [7, 28] was 40 and the “Plant response rating, Ryegrass, Italian” value [8, 27] was 60. The “Plant response rating, Ryegrass, Italian” value [8, 28] was 100, the “Plant response rating, Soybean” value [9, 27] was 20 and the “Plant response rating, Soybean” value [9, 28] was 50. For the same molecule, the “Plant response rating, Wheat” value [10, 27] was 30, the “Plant response rating, Wheat” value [10, 28] was 90 and the “Blackgrass plant response rating” value [11] was 20. The “Plant response rating, Blackgrass” value [11] was 20, the “Corn plant response rating” value [12] was 0 and the “Plant response rating, Corn” value [12] was 50. For the same molecule, the “Foxtail, Giant plant response rating” value [13] was 10, the “Plant response rating, Foxtail, Giant” value [13] was 80 and the “Goosegrass plant response rating” value [14] was 0. The “Plant response rating, Goosegrass” value [14] was 30, the “Kochia plant response rating” value [15] was 30 and the “Plant response rating, Kochia” value [15] was 50. The “Oat, Wild plant response rating” value [16] was 0, the “Plant response rating, Oat, Wild” value [16] was 20 and the “Pigweed, Palmer plant response rating” value [17] was 0. The “Plant response rating, Pigweed, Palmer” value [17] was 10, the “Ragweed plant response rating” value [18] was 40 and the “Plant response rating, Ragweed” value [18] was 60. The “Ryegrass, Italian plant response rating” value [19] was 0, the “Plant response rating, Ryegrass, Italian” value [19] was 60 and the “Soybean plant response rating” value [20] was 50. For the same molecule, the “Plant response rating, Soybean” value [20] was 60, the “Wheat plant response rating” value [21] was 0 and the “Plant response rating, Wheat” value [21] was 80. The “Galium plant response rating” value [22] was 50, the “Plant response rating, Galium” value [22] was 60 and the “Horseweed plant response rating” value [23] was 30. For the same molecule, the “Plant response rating, Horseweed” value [23] was 80, the “Plant response rating, Barnyardgrass (0 to 100 scale, 0 is no effect, 100 is complete control)” value [24] was 98 and the “Plant response rating, Ducksalad (0 to 100 scale, 0 is no effect, 100 is complete control)” value [25] was 70. For the same molecule, the “Plant response rating, Rice (0 to 100 scale, 0 is no effect, 100 is complete control)” value [26] was 10.
